# Tests used:
# [1] = tested on: Klebsiella pneumoniae; test: Bacterial colony counts extracted from impregnated central venous catheters after exposure to bacteria; type: cell-based; settings: catheter impregnated with 25 mg/ml, 10^5 cfu/ml suspension in TSB, 37° C., 24 hours
# Description: (§1) To evaluate the anticolonization/antimicrobial activity of central venous catheters treated with dihydrolipoic acid, segments of 7 French triple lumen polyurethane central venous catheters were impregnated with dihydrolipoic acid using the same patented method described in Example 1 (U.S. Pat. No. 6,589,591) with 25 mg/ml (final solution volume) of the agent. After the impregnation process and drying, Catheter segments were then placed in the impregnating solution at 55° C. with agitation for 1 hour in the dark. Catheter segments were then removed from the solution and dried under a fume hood overnight in the dark. Catheter segments were rinsed with deionized water the next day and let dry for another 18 hours in the dark. After the impregnation process and drying, one-centimeter segments of impregnated catheters were individually placed in 1 ml of 10^5 cfu/ml suspensions of MRSE, MRSA, or K. pneumoniae in trypticase soy broth (TSB) at 37° C. for 24 hours. One-centimeter segments of non-impregnated catheters were also incubated individually in each bacterial suspension at 37° C. for 24 hours as controls. […]
# (§2) Aliquots of each suspension and subsequent dilutions were cultured quantitatively.
# [2] = tested on: Pseudomonas aeruginosa; test: as above; type: cell-based; settings: catheter impregnated with 100 mg/ml, 10^5 cfu/ml suspension in TSB, 37° C., 24 hours
# Description: as §1, with “lipoamide,” for “dihydrolipoic acid,”, “lipoamide” for “dihydrolipoic acid”, “100” for “25”, “P. aeruginosa” for “K. pneumoniae”
# as §2
# [3] = tested on: Escherichia coli; test: Bacterial colony counts extracted from impregnated central venous catheters after incubation in bacterial suspension; type: cell-based; settings: catheter impregnated with 50 mg/ml, 10^5 cfu/ml suspension in TSB, 37° C., 24 hours
# Description: (§3) In this example, segments of 7 French triple lumen polyurethane central venous catheters were impregnated with α-lipoic acid using the method described elsewhere (U.S. Pat. No. 6,589,591) and were subjected to zones of inhibition. Briefly, α-lipoic acid was dissolved in 88% formic acid (at a final solution concentration of 50 mg/ml). 85% ortho-Phosphoric acid and glycerol were then added to the solution at 79:8:13 (v/v/v) (formic acid:ortho-phosphoric acid:glycerol). After mixing the solution, 300 mg/ml of potassium chloride was added to the final solution and mixed.
# (§4) Catheter segments were then placed in the impregnating solution at 55° C. with agitation for 1 hour in the dark. Catheter segments were then removed from the solution and dried under a fume hood overnight in the dark. Catheter segments were rinsed with deionized water the next day and let dry for another 18 hours in the dark. After the impregnation process and drying, one-centimeter segments of impregnated catheters were individually placed in 1 ml of 10^5 cfu/ml suspensions of methicillin-sensitive Staphylococcus epidermidis (MSSE), methicillin-resistant Staphylococcus epidermidis (MRSE), methicillin-resistant Staphylococcus aureus (MRSA), Klebsiella pneumoniae, Escherichia coli, or Proteus mirabilis in trypticase soy broth (TSB) at 37° C. for 24 hours. One-centimeter segments of non-impregnated catheters were also incubated individually in each bacterial suspension at 37° C. for 24 hours as controls. Catheter segments were removed from each bacterial suspension after this period, shaken to remove excess broth containing free-floating bacteria from their surfaces, placed in 1 ml of normal saline, sonicated for 5 minutes, and vortexed for 30 seconds.
# as §2
# [4] = tested on: Klebsiella pneumoniae I; test: as above; type: cell-based; settings: catheter impregnated with 50 mg/ml, 10^5 cfu/ml suspension in TSB, 37° C., 24 hours
# Description: as §3, §4, §2
# [5] = tested on: Proteus mirabilis; test: as above; type: cell-based; settings: catheter impregnated with 50 mg/ml, 10^5 cfu/ml suspension in TSB, 37° C., 24 hours
# Description: as §3, §4, §2
# [6] = tested on: methicillin-sensitive Staphylococcus epidermidis (MSSE); test: as above; type: cell-based; settings: catheter impregnated with 50 mg/ml, 10^5 cfu/ml suspension in TSB, 37° C., 24 hours
# Description: as §3, §4, §2
# [7] = tested on: Klebsielle pneuminiae II; test: as above; type: cell-based, Klebsiella pneumoniae; settings: catheter impregnated with 50 mg/ml, 10^5 cfu/ml suspension in TSB, 37° C., 24 hours
# Description: as §3
# Catheter segments were then placed in the impregnating solution at 55° C. with agitation for 1 hour in the dark. Catheter segments were then removed from the solution and dried under a fume hood overnight in the dark. Catheter segments were rinsed with deionized water the next day and let dry for another 18 hours in the dark. […]
# as §2
smiles,measurement,setting,value
"O=C(O)CCCCC(S)CCS (stereo not shown) [Dihydrolipoic acid, 6,8-dimercaptooctanoic acid]",Mean bacterial colony counts extracted from catheter,[1],280000
"NC(=O)CCCCC1CCSS1 (stereo not shown) [Lipoamide, lipoamide]",Mean bacterial colony counts extracted from catheter,[2],210000
"O=C(O)CCCCC1CCSS1 (stereo not shown) [Lipoic acid, 1,2-dithiolane-3-pentanoic acid]",Bacterial colony counts extracted from central venous catheters,[3],1.4 × 10^4
same,Bacterial colony counts extracted from central venous catheters,[4],1.1 × 10^6
same,Bacterial colony counts extracted from central venous catheters,[5],0
same,Bacterial colony counts extracted from central venous catheters,[6],10
same,Bacterial colony counts extracted from central venous catheters,[7],9.0 × 10^3

# Source: patent publication US9956319B2, “Compositions useful as antibiofilm or antimicrobial agents and methods using same” (BAYLOR COLLEGE OF MEDICINE, priority 2012, dated 2018)
